Common to all, as to type: cell-based
Assay [1] relates to SDMA (PRMT5 activity) in HAP1 MTAP-deleted cell line. Nature of the assay: SDMA in-cell western assay, HAP1 MTAP-deleted. As to conditions: for IC50 / IC90: Homo sapiens, SDMA in-cell western, HAP1 MTAP-deleted cells, 24 hours compound incubation; for Hap1 MTAP intact/deleted ratio: ratio of SDMA IC50 in HAP1 MTAP-intact to HAP1 MTAP-deleted cell line.
Assay [2] relates to HAP1 MTAP-deleted cell line. Nature of the assay: Viability assay (CellTiter-Glo), HAP1 MTAP-deleted. To be noted: Homo sapiens, 168 h, HAP1 MTAP-deleted cells, 7 days. Summed up: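 HAP1 MTAP-deleted and MTAP-intact cells seeded, then dosed next day (n=3, 0.2% DMSO) and grown 7 days. Viability by CellTiter-Glo luminescence, expressed as % of DMSO control per cell line.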
Assay [3] relates to SDMA (PRMT5 activity) in HAP1 MTAP-intact cell line. Put plainly: SDMA in-cell western assay, HAP1 MTAP-intact. As to conditions: Homo sapiens, SDMA in-cell western, HAP1 MTAP-intact cells, 24 hours compound incubation.

SMILES strings stand for the structures. Some results are limits rather than exact numbers.

One may read the IC50 as the concentration needed to halve the response being measured. In general, IC90 refers to the concentration at which the effect reaches the 90% level. Higher therefore signals a need for much substance.

Turning to `COc1ncc(NC(=O)C(=O)N2C[C@@H](C)CC[C@@H]2c2cccc(OC[C@@H](C)N(C)C)c2)cc1C(N)=O` [Compound 49, 5-(2-((2R,5S)-2-(3-((R)-2-(dimethylamino)propoxy)phenyl)-5-methylpiperidin-1-yl)-2-oxoacetamido)-2-methoxynicotinamide], in assay [1], the half-maximal inhibitory concentration (IC50) is < 5 nM, the concentration for an effect of 90% (IC90) is < 75 nM and the “Hap1 MTAP intact/deleted ratio” value was “A (“A” indicates an IC50 ratio greater than or equal to 30 fold)”. For the same molecule, the half-maximal inhibitory concentration (IC50) in assay [2] was in the range of 100 to 1000 nM. For the same molecule, the IC50 in assay [3] (HAP1, 24 h) is > 50 nM.
As to `CCc1cc(NC(=O)C(=O)N2C[C@@H](C)CC[C@@H]2c2ccc3cc(C#N)cnc3c2)cnc1N` [Compound 54], in assay [1], the concentration for half-maximal inhibition (IC50) is 5 to 50 nM, the IC90 is > 125 nM and the “Hap1 MTAP intact/deleted ratio” value is on record as “A (“A” indicates an IC50 ratio greater than or equal to 30 fold)”. The molecule also yielded an IC50 in assay [2] of 100 to 1000 nM. Besides, the 50% inhibitory concentration (IC50) in assay [3] (HAP1, 24 h) was > 50 nM.
The corresponding values for `CCc1cc(NC(=O)C(=O)N2C[C@@H](C)CC[C@@H]2c2ccc3cn(C4CCOCC4)nc3c2)cnc1N` [Compound 17, N-(6-amino-5-ethyl-3-pyridyl)-2-oxo-2-[(2R,5S)-5-methyl-2-(2-tetrahydropyran-4-ylindazol-6-yl)-1-piperidyl]acetamide] are 5 to 50 nM, < 75 nM, “A (“A” indicates an IC50 ratio greater than or equal to 30 fold)”, < 100 nM and > 50 nM.
For `COc1ncc(NC(=O)C(=O)N2C[C@@H](C)CC[C@@H]2c2ccc3sc([C@@H]4C[C@@H]5CN(C)C[C@@H]5C4)nc3c2)cc1C(N)=O` (single isomer, unassigned) [Compound 82] the same measures were < 5 nM, < 75 nM, “A (“A” indicates an IC50 ratio greater than or equal to 30 fold)”, < 100 nM and > 50 nM.
For `CCc1cc(NC(=O)C(=O)N2C[C@@H](C)CC[C@@H]2c2ccc3cn([C@@H]4CCN(C)C4)nc3c2)cnc1N` [Compound 112, N-(6-amino-5-ethylpyridin-3-yl)-2-((2R,5S)-5-methyl-2-(2-((R)-1-methylpyrrolidin-3-yl)-2H-indazol-6-yl)piperidin-1-yl)-2-oxoacetamide] the same measures were < 5 nM, < 75 nM, “B (“B” indicates an IC50 ratio greater than or equal to 15 fold but lower than 30 fold)”, < 100 nM and 5 to 50 nM.
For `COc1ncc(NC(=O)C(=O)N2C[C@@H](C)CC[C@@H]2c2ccc3cn([C@H]4CCOC4)nc3c2)cc1C(N)=O` (racemic) [Compound 97, 2-methoxy-5-[[2-oxo-2-[rac-(2R,5S)-5-methyl-2-(2-tetrahydrofuran-3-ylindazol-6-yl)-1-piperidyl]acetyl]amino]pyridine-3-carboxamide], the half-maximal inhibitory concentration (IC50) in assay [1] was 5 to 50 nM; in assay [2], 100 to 1000 nM; in assay [3] (HAP1, 24 h), > 50 nM. For the same molecule, in assay [1], the IC90 is 75 to 125 nM. Besides, the “Hap1 MTAP intact/deleted ratio” value in assay [1] is reported as “A (“A” indicates an IC50 ratio greater than or equal to 30 fold)”.
For `CCc1cc(NC(=O)C(=O)N2C[C@@H](C)CC[C@@H]2c2ccc3sc(C4CN(C)CC(=O)N4C)nc3c2)cnc1N` (mixture of isomers) [Compound 125, N-(6-amino-5-ethylpyridin-3-yl)-2-((2R,5S)-2-(2-(1,4-dimethyl-6-oxopiperazin-2-yl)benzo[d]thiazol-5-yl)-5-methylpiperidin-1-yl)-2-oxoacetamide] the same measures were 5 to 50 nM, < 100 nM, > 50 nM, 75 to 125 nM and “B (“B” indicates an IC50 ratio greater than or equal to 15 fold but lower than 30 fold)”.
The corresponding values for `COc1ncc(NC(=O)C(=O)N2C[C@@H](C)CC[C@@H]2c2ccc3sc(C4CCNCC4)nc3c2)cc1C(N)=O` [Compound 52, 2-methoxy-5-(2-((2R,5S)-5-methyl-2-(2-(piperidin-4-yl)benzo[d]thiazol-5-yl)piperidin-1-yl)-2-oxoacetamido)nicotinamide] are 5 to 50 nM, 100 to 1000 nM, > 50 nM, 75 to 125 nM and “B (“B” indicates an IC50 ratio greater than or equal to 15 fold but lower than 30 fold)”.
The corresponding values for `CCc1cc(NC(=O)C(=O)N2C[C@@H](C)CC[C@@H]2c2ccc3sc(C[C@H]4CCN(C)C[C@@H]4C)nc3c2)cnc1N` (racemic) [Compound 18, N-(6-amino-5-ethylpyridin-3-yl)-2-((2R,5S)-2-(2-((1,3-dimethylpiperidin-4-yl)methyl)benzo[d]thiazol-5-yl)-5-methylpiperidin-1-yl)-2-oxoacetamide] are < 5 nM, < 100 nM, 5 to 50 nM, < 75 nM and “A (“A” indicates an IC50 ratio greater than or equal to 30 fold)”.
As to `COc1ncc(NC(=O)C(=O)N2C[C@@H](C)CC[C@@H]2c2ccc3sc(C4=C(C)CN(C)CC4)nc3c2)cc1C(N)=O` [Compound 61, 5-(2-((2R,5S)-2-(2-(1,5-dimethyl-1,2,3,6-tetrahydropyridin-4-yl)benzo[d]thiazol-5-yl)-5-methylpiperidin-1-yl)-2-oxoacetamido)-2-methoxynicotinamide], in assay [1], the 50% inhibitory concentration (IC50) was < 5 nM, the IC90 is < 75 nM and the “Hap1 MTAP intact/deleted ratio” value was “A (“A” indicates an IC50 ratio greater than or equal to 30 fold)”. Besides, the IC50 in assay [2] is < 100 nM. In addition, the half-inhibitory concentration (IC50) in assay [3] is > 50 nM.
Take `CCc1cc(NC(=O)C(=O)N2C[C@@H](C)CC[C@@H]2c2cccc(OC3CCN(C)CC3)c2)cnc1N` [Compound 58, N-(6-amino-5-ethylpyridin-3-yl)-2-((2R,5S)-5-methyl-2-(3-((1-methylpiperidin-4-yl)oxy)phenyl)piperidin-1-yl)-2-oxoacetamide]: in assay [1], the IC50 is < 5 nM, the 90% effect concentration (IC90) was < 75 nM and the “Hap1 MTAP intact/deleted ratio” value is listed as “A (“A” indicates an IC50 ratio greater than or equal to 30 fold)”. Besides, the IC50 in assay [2] is < 100 nM. In assay [3] (HAP1, 24 h), the half-inhibitory concentration (IC50) is > 50 nM.
For `CCc1cc(NC(=O)C(=O)N2C[C@@H](C)CC[C@@H]2c2ccc3ccc(C4CCN(C)CC4)cc3c2)cnc1N` [Compound 123, N-(6-amino-5-ethylpyridin-3-yl)-2-((2R,5S)-5-methyl-2-(7-(1-methylpiperidin-4-yl)naphthalen-2-yl)piperidin-1-yl)-2-oxoacetamide] the same measures were < 5 nM, < 75 nM, “A (“A” indicates an IC50 ratio greater than or equal to 30 fold)”, < 100 nM and > 50 nM.
The corresponding values for `COc1ncc(NC(=O)C(=O)N2C[C@@H](C)CC[C@@H]2c2ccc3sc(C4CCN(C)C4(C)C)nc3c2)cc1C(N)=O` (mixture of isomers) [Compound 87, 2-methoxy-5-(2-((2R,5S)-5-methyl-2-(2-(rac-(S)-1,2,2-trimethylpyrrolidin-3-yl)benzo[d]thiazol-5-yl)piperidin-1-yl)-2-oxoacetamido)nicotinamide] are < 5 nM, < 75 nM, “A (“A” indicates an IC50 ratio greater than or equal to 30 fold)”, < 100 nM and > 50 nM.
The corresponding values for `COc1ncc(NC(=O)C(=O)N2C[C@@H](C)CC[C@@H]2c2cccc(OC[C@H](C)N(C)C)c2)cc1C(N)=O` [Compound 37, 5-(2-((2R,5S)-2-(3-((S)-2-(dimethylamino)propoxy)phenyl)-5-methylpiperidin-1-yl)-2-oxoacetamido)-2-methoxynicotinamide] are 5 to 50 nM, 75 to 125 nM, “A (“A” indicates an IC50 ratio greater than or equal to 30 fold)”, < 100 nM and > 50 nM.
In the case of `CCc1cc(NC(=O)C(=O)N2C[C@@H](C)CC[C@@H]2c2ccc3cn([C@@H]4C[C@@H](C)CN(C)C4)nc3c2)cnc1N` (relative stereo) [Compound 60, N-(6-amino-5-ethylpyridin-3-yl)-2-((2R,5S)-2-(2-(1,5-dimethylpiperidin-3-yl)-2H-indazol-6-yl)-5-methylpiperidin-1-yl)-2-oxoacetamide], in assay [1], the IC50 was < 5 nM, the IC90 was < 75 nM and the “Hap1 MTAP intact/deleted ratio” value is “A (“A” indicates an IC50 ratio greater than or equal to 30 fold)”. Further, in assay [2], the half-maximal inhibitory concentration (IC50) was < 100 nM. The 50% inhibitory concentration (IC50) in assay [3] (HAP1, 24 h) was > 50 nM.
The corresponding values for `COc1ncc(NC(=O)C(=O)N2C[C@@H](C)CC[C@@H]2c2ccc3sc([C@@H](C)N(C)C)nc3c2)cc1C(N)=O` [Compound 25, 2-methoxy-5-[[2-oxo-2-[(2R,5S)-5-methyl-2-[2-[(1R)-1-(dimethylamino)ethyl]-1,3-benzothiazol-5-yl]-1-piperidyl]acetyl]amino]pyridine-3-carboxamide] are 5 to 50 nM, 75 to 125 nM, “A (“A” indicates an IC50 ratio greater than or equal to 30 fold)”, < 100 nM and > 50 nM.

Source of the values: patent US20250171432A1, “COMPOUNDS AND METHODS OF USE” (Tango Therapeutics, Inc., priority 2022, published 2025).
